From PubChem BioAssay AID1985 (Southern Research Specialized Biocontainment Screening …, 2009)
pIC50: −log10 of the molar value. Several values for one entry are separate records, joined by “and”; a condition that tells them apart may be missing. Equal values may be shown once.

Test system: S. Typhi PhoP-promoter GFP reporter, fluorescence, 4 h
Test: modified counter assay using GFP fluorescence, PhoP regulon inhibitor project, dose response (AID 1985)

SMILES | pIC50
O=C(N/N=C/c1ccc([N+](=O)[O-])s1)C(O)c1ccccc1 (centres undefined) | 4.48
NC(=O)SCC(=O)Nc1ccc(Cl)c(Cl)c1 | 4.28
COc1cc([N+](=O)[O-])cc(/C=N/NC(=O)C(C)Nc2cccc(C)c2)c1O (centres undefined) | 4.14
CCCCCN=C(N)N/N=C/c1c[nH]c2ccc(OC)cc12 | 4.45
Cc1cc(OCCCCCNCCO)cc(C)c1Cl | 3.83
C#CCOCCOCCOCCNc1nc(N2CCN(C(=O)[C@H](Cc3cc4ccccc4[nH]3)n3cc([C@@H](N)C(C)CC)nn3)CC2)nc(N2CCN(C(=O)[C@H](Cc3cc4ccccc4[nH]3)n3cc([C@@H](N)CC(C)C)nn3)CC2)n1 (some centres undefined) | 4.26
O=c1c2ccccc2[nH]c2ccc(F)cc12 | 4.15
CCOC(=O)C1Nc2c(F)cc(C)cc2C2c3ccccc3CC12 (centres undefined) | 3.87
O=C(N/N=C/c1cc(Cl)ccc1O)c1ccncc1 | 4.66
Oc1ccccc1Nc1nc(NCc2ccco2)c2ccccc2n1 | 3.86
CCCCCCCCCCOC(=O)Cn1c(COc2cccc(C)c2)[n+](C)c2ccccc21 | 4.80
COc1ccc2nc(NC(=O)C3CC(=O)N(c4ccccc4)C3)sc2c1 (centres undefined) | 3.97
O=C(NC(=S)NNC(=O)c1ccco1)c1ccc(Br)cc1 | 4.16
CCCCCCOC(=O)C[N+](C)(C)CCOC1CC2CCC1(C)C2(C)C (centres undefined) | 4.32
COc1cc([N+](=O)[O-])cc(/C=N/NC(=O)CSc2ccccn2)c1O | 4.11
[O-][n+]1c2c(c3c4non(O)c4ccc31)CCCC2 | 3.89
O=C(Nc1cccc(Cl)c1)Nc1nccs1 | 4.26
Cc1ccc2nc(/C(C#N)=C\c3ccc([N+](=O)[O-])o3)[nH]c2c1 | 4.63
O=C(N/N=C/c1ccc(O)cc1O)C(=O)N/N=C/c1ccc(O)cc1O | 3.97
Nc1nc(Nc2cccc(F)c2)nc2ccccc12 | 4.27
CN1CCc2c(sc(NC(=O)c3ccc([N+](=O)[O-])o3)c2C(N)=O)C1 | 4.96
Cc1cccc(C(=O)NNC(=S)NC(=O)c2cccs2)c1 | 4.30
CCn1cc(C(=O)O)c(=O)c2cc(F)c(N3CCN(C(=S)NC(=O)c4cccc(C)c4)CC3)cc21 | 5.08
O=c1[nH][nH]c(-c2ccccc2O)c1C(C[N+](=O)[O-])c1ccc(Br)cc1 (centres undefined) | 4.14

SMILES | pIC50
Clc1cccc(/C=N\Nc2nccs2)c1 | 4.23
CN1C(=O)NC(c2cccc(O)c2)C(C(=O)c2cccs2)C1(O)C(F)(F)F (centres undefined) | 4.39
CN(C)CCCN1c2ccccc2Sc2ccc(Cl)cc21 | 4.05 and 4.09
CCOc1ccc(Nc2c3ccccc3nc3ccccc23)cc1 | 4.25
COc1ccc2[nH]c3c(C)c4ccncc4c(C)c3c2c1 | 4.41
CCCCCC(=O)NC(=S)NNC(=O)CC | 4.07
CNCCCCOc1ccc(C(C)(C)C)cc1Cl | 4.21
NCCCC[C@H]1CN=C(N)N1CCC12CC3CC(CC(C3)C1)C2 | 3.88
COc1cccc(/C=N/NC(=O)C(=O)N2CCCC2)c1O | 3.99
O=C1C(Cl)=C(NCc2cccnc2)C(=O)c2ccccc21 | 4.38
O=S(=O)(Nc1ncccn1)c1ccc(NC(=S)Nc2ccc(Cl)cc2)cc1 | 4.01
O=C(Nc1cccc([N+](=O)[O-])c1)Nc1cccs1 | 4.34
O=C(Nc1csc(Cl)c1)c1ccccc1 | 4.36
COC(=O)C1C(O)C(C)C(O)C(C)/C=C\C=C(/C)C(=O)Nc2c(C)c(OC(C)=O)c3c(c2O)C(=O)C(C)=C2OCOC(=C23)/C(C)=C/C(C)(O)C(O)C(C)C1O (centres undefined) | 4.61
CCn1cc(C(=O)O)c(=O)c2cc(F)c(N3CCNCC3)cc21 | > 6.64
CC(NCC(O)COc1ccc2ccccc2c1)c1ccccc1 (centres undefined) | 3.88
COc1ccc(C(=O)NC(=S)NNC(=O)c2cnccn2)cc1OC | 4.22
O=C(N/N=C/c1sc2ccccc2c1O)c1cccc2ccccc12 | 4.57
CC1(C)N=C(N)NC(Nc2ccc(Br)cc2)=N1 | 4.12
CN(C)CC/C=C1/c2ccccc2Sc2ccc(Cl)cc21 | 4.06
Cc1ccc2c(c1)sc(-c1ccc(N(C)C)cc1)[n+]2C | 4.63
OC(c1cc(C(F)(F)F)nc2c(C(F)(F)F)cccc12)C1CCCCN1 (centres undefined) | 4.43
CCOC(=O)c1c(-c2ccccc2)oc2ccc(OCC(O)CNCCN(C)C)cc12 (centres undefined) | 4.10
O=C(CCN1CCN(c2ccccc2)CC1)N/N=C/c1ccc([N+](=O)[O-])o1 | 4.15

SMILES | pIC50
CN1CCN(C2=Cc3ccccc3Sc3cc(F)ccc32)CC1 | 3.94
CCCCOc1ccc(CSC(=N)N)cc1Cl | 4.50
CCn1cc(C(=O)O)c(=O)c2cc(F)c(N3CCN(C(=S)NC(=O)c4cc(OC)cc(OC)c4)CC3)cc21 | 5.51
Cc1ccc2nc(N(CCCN(C)C)C(=O)c3ccc4c(c3)CCCC4)sc2c1 | 4.11
OC(CNCC1CCCO1)Cn1c2ccc(Cl)cc2c2cc(Cl)ccc21 (centres undefined) | 4.41
OC(CNCc1ccco1)Cn1c2ccc(Br)cc2c2cc(Br)ccc21 (centres undefined) | 4.55
CC1COc2c(N3CCN(C)CC3)c(F)cc3c(=O)c(C(=O)O)cn1c23 (centres undefined) | > 6.64
Nc1[nH]ncc1-c1ccccc1 | 4.50
O=C(O)c1ccc(N2C(=O)CSC2=S)cc1 | 3.84
Cc1ccccc1C(=O)Nc1cccc(C(=O)N/N=C/c2cc(Cl)cc([N+](=O)[O-])c2O)c1 | 4.47
CC(C)(c1ccccc1)c1ccc(OCCCNCCO)cc1 | 4.03
O=C(CCNC(=O)c1ccco1)Nc1ccc(SC(F)F)cc1 | 4.13
C[C@H]1c2cccc(O)c2C(O)=C2C(=O)[C@]3(O)C(O)=C(C(N)=O)C(=O)[C@@H](N(C)C)C3[C@@H](O)C21 (some centres undefined) | 5.93
Clc1ccc(OCCCNCc2ccccc2)c(Br)c1 | 4.36
Cc1nnc(N/N=C/c2ccccn2)[nH]c1=O | 4.51
CC(C)N1CSC(=S)N(Cc2ccccc2)C1 | 4.22
O=C(/C=C/c1ccccc1)c1cc(Br)ccc(=O)c1O | 4.29
O=C1C(SCCO)=C(SCCO)C(=O)c2ccccc21 | 3.91
O=C(O)c1cn(-c2ccc(F)cc2)c2cc(Cl)c(F)cc2c1=O | 4.05
O=C(NC1CCCC1)c1ccc(Br)s1 | 4.47
O=C(NC1CCCCC1)c1ccc([N+](=O)[O-])o1 | 4.40
CC(C)(c1ccccc1)c1ccc(OCCCN2CCNCC2)cc1 | 3.94
COc1cc([N+](=O)[O-])cc(/C=N/NC(=O)c2cccnc2)c1O | 4.18
O=C(Nc1cccc(NC(=O)c2ccccc2Cl)c1)c1ccc([N+](=O)[O-])o1 | 4.76

SMILES | pIC50
CCn1cc(C(=O)O)c(=O)c2ccc(C)nc21 | 4.12
COc1cccc(CNCCc2c[nH]c3ccccc23)c1OCc1ccccc1 | 3.82
COc1c2ccccc2nc2ccccc12 | 4.54
Cc1ccc(Nc2nc(NCCO)c3ccccc3n2)cc1C | 4.09
c1cc2c(cc1C1CCCCC1)c1c3n2CCCNC3CCC1 (centres undefined) | 4.40
Fc1ccc(CCNCc2ccccc2Cl)cc1 | 4.16
CN1/C(=C\C=C\C2=[N+](C)c3ccc4ccccc4c3C2(C)C)C(C)(C)c2ccccc21 | 5.44
COc1cc([N+](=O)[O-])cc(/C=N/NC(=O)C(O)(c2ccccc2)c2ccccc2)c1O | 4.24
COc1cc2c(cc1O)[C@H](Cc1ccc(Oc3cc(C[C@@H]4NCCc5cc(OC)c(O)cc54)ccc3O)cc1)NCC2 | 4.24
O=C(Cc1ccc([N+](=O)[O-])cc1)N/N=C/c1ccc([N+](=O)[O-])o1 | 4.88
Oc1ccc(N=Nc2ccc(Br)cc2)c(O)c1 | 4.06
COc1ccc(Cl)cc1S(=O)(=O)N1CCN(C(=O)c2ccco2)CC1 | 3.84
CCCOc1ccc(C(=O)NNC(=S)NC(=O)CC)cc1 | 4.10
CCc1ccc(NC(=O)C[n+]2cc(-c3ccc(C)cc3)n3c2CCC3)cc1 | 4.16
CCn1cc(C(=O)NCCCN(C)C)c(=O)c2cc(F)c(N3CCN(C)CC3)cc21 | 4.45
CCN1c2ccccc2NC2N=C(OC)C(c3ccccc3)C21 (centres undefined) | 4.25
O=C(N/N=C/c1cc(O)ccc1Br)c1cccnc1 | 4.48
O=C(Nc1nnc(-c2cccs2)o1)c1cccc(Oc2ccccc2)c1 | 4.40
Clc1ccc(OCCCNCc2ccccc2)c2ccccc12 | 4.47
COc1cccc(/C=N/NC(=O)CSCC(=O)Nc2ccccc2)c1O | 4.03
NC1=NC2(CCCCC2)N=C(Nc2ccc(Br)cc2)N1 | 4.54
NC(N)=N/N=C/c1ccc(OCc2ccc(Cl)cc2Cl)cc1 | 4.77
O=[N+]([O-])c1ccc(O)c(/C=N/Nc2ccccn2)c1 | 4.82
O=C(N/N=C/c1cc(Br)ccc1O)c1ccccc1Cl | 4.08

SMILES | pIC50
COc1cc(C(=O)O/N=C2\C=CC(=O)C(C)=C2)cc(OC)c1OC | 3.88
OCCNc1nc(Nc2ccccc2)nc2ccccc12 | 4.45
O=C(CSc1ccccn1)Nc1nonc1[N+](=O)[O-] | 4.36
Cc1nc(N)c(Cc2ccc(Cl)cc2Cl)c(N)n1 | 4.08
C/C(=N\NC(=O)c1ccc(Cl)cc1)c1ccccn1 | 4.32
COc1ccc(C2NCCc3c2[nH]c2ccccc32)cc1COc1ccc(F)cc1 (centres undefined) | 4.11
Cc1ccccc1Nc1cc(C)c2c(O)cccc2n1 | 4.59
O=C(CSc1ccccn1)N/N=C/c1cc([N+](=O)[O-])ccc1O | 4.45
COc1cccc2c(=O)c(C(=O)O)c[nH]c12 | 3.98
Cc1cc(C)n2nc(S(=O)(=O)Nc3c(Cl)cccc3Cl)nc2n1 | 4.96
Cc1ccc(C(C[N+](=O)[O-])Sc2ccc(N)cc2)cc1 (centres undefined) | 4.53
CCN(CC)CCn1c(=N)n(CC(O)COc2cccc(C)c2)c2ccccc21 (centres undefined) | 4.07
CN(C)CCCN(C(=O)COc1ccccc1)c1nc2ccc(Cl)cc2s1 | 3.85
O=C1NCCN1c1ncc([N+](=O)[O-])s1 | 4.80
Cc1ccc2c(c1)N/C(=C(\C=C(/Cl)[N+](=O)[O-])[N+](=O)[O-])N2 | 4.09
C(=N/Nc1nccs1)/c1cccnc1 | 4.21
O=c1[nH]cc(F)c(=O)[nH]1 | 6.42
Brc1ccc2c(c1)C(OC1CN3CCC1CC3)c1ccccc1CS2 (centres undefined) | 4.02
C1=C(CCNc2ncnc3c2[nH]c2ccccc23)CCCC1 | 3.94
CCN1/C(=C/c2cc[n+](C)cc2)C=Cc2cc(C)ccc21 | 4.10
COc1ccc(-c2cnc(NCc3cc4c(cc3[N+](=O)[O-])OCO4)n2C)cc1 | 3.97
O=C1c2cccc3cccc(c23)C(=O)C1(O)O | 4.54
COc1cc(CNCCc2ccccc2)cc(Cl)c1OCc1ccccc1 | 4.10
